Legend:
[1] = tested on: WM1361A, WM1366, SK-MEL-30 or SK-MEL-173 cells; assay: 7-day cell growth monitored by IncuCyte; type: cell-based, human; settings: 7-day treatment course
Method: FIG. 2A: NRAS mutant melanoma cell line WM1361A, WM1366, SK-MEL-30, SK-MEL-173, 1007 and 1014 were treated for 72 hours as indicated with GSK2334470 and trametinib and analyzed for cell density by IncuCyte. Synergy graphs were generated utilizing Combenefit Software with Loewe method. Data are represented as the mean from three biological independent experiments. FIG. 2B: WM1361A, WM1366, SK-MEL-30 or SK-MEL-173 cells were treated with GSK2334470 (PDPK1i) and trametinib (tram) alone or in combination (comb) at the indicated concentrations for 7 days. Cell growth was monitored by IncuCyte every 2 hours. Media were replaced twice with drugs during culture. Data are represented as the mean±SEM of three biological independent experiments. p values were calculated with an unpaired two-tailed t test. n.s., not significant.
FIG. 11A: WM1361A, WM1366, SK-MEL-30 and SK-MEL-173 cells were treated for 72 hours as indicated with GSK2334470 and PD0325901 and analyzed for cell density by IncuCyte. […] Cell growth was monitored by IncuCyte every 2 hours. Data are represented as the mean±SEM of three biological independent experiments. p values were calculated with an unpaired two-tailed t test. n.s., not significant.
For cell proliferation and drug response, cells were monitored by IncuCyte® (Essen Bioscience, Ann Arbor, MI) every 2 hours.

[2] = tested on: WM1361A and WM1366 PDPK1-depleted clones; assay: Cell growth of PDPK1-depleted (sgRNA knockout) clones in response to MEKi; type: cell-based, human; settings: for decrease of the half-maximum inhibitory concentration by PDPK1 depletion: WM1361A and WM1366, 5 days, PDPK1-depleted clones vs parental clone; for cell proliferation, MEKi combined with PDPK1 depletion: WM1361A and WM1366 KO1 and KO2 clones
Method: (§1) FIGS. 3A-3B: PDPK1 depletion by two individual sgRNAs in WM1361A (FIG. 3A) or WM1366 (FIG. 3B) cells were analyzed by immunoblot. FIGS. 3C-3D, Cell growth of WM1361A (FIG. 3C) or WM1366 (FIG. 3D) parental clones (Cas9) and PDPK1-depleted clones by two individual sgRNAs (KO1 and KO2) treated with vehicle (DMSO) or trametinib (Tram) was monitored by IncuCyte every 2 hours. Media were replaced twice with fresh drugs during culture. Data are represented as the mean±SEM of three biological independent experiments. p values were calculated with an unpaired two-tailed t test. n.s., not significant. FIGS. 3E-3F, Cellular growth in response to trametinib at the indicated doses for 5 days in WM1361A (FIG. 3E) or WM1366 (FIG. 3F) parental clone (iCas9) and PDPK1-depleted clones (KO1 and K02). Media were replaced once with drugs during culture. Data are represented as dots of three biological independent experiments. FIGS. 3G-3J, PDPK1 knockdown by ON-target control siRNAs and two individual siRNAs in SK-MEL-30 (FIG. 3G) or SK-MEL-173 cells (FIG. 3I) was analyzed by immunoblot. Cellular growth in response to trametinib at the indicated doses for 3 days in SK-MEL-30 (FIG. 3H) or SK-MEL-173 (FIG. 3J) control cells (siCtrl) and PDPK1-knockdown cells (siPDPK1s). Data are represented as dots of at least three biological independent experiments.
FIG. 12A-12B: Cell growth of WM1361A (FIG. 12A) or WM1366 (FIG. 12B) parental clone (Cas9) and PDPK1-depleted clones (KO1 and K02) treated with vehicle (DMSO) or PD0325901 (PD) was monitored by IncuCyte every 2 hours. Media were replaced twice with drugs during culture. Data are represented as the mean±SEM of three biological independent experiment. p values were calculated with an unpaired two-tailed t test. n.s., not significant. FIGS. 12C-12D, Cellular growth in response to PD0325901 at the indicated doses for 5 days in WM1361A (FIG. 12C) or WM1366 (FIG. 12D) parental clone (iCas9) and PDPK1-depleted clones (KO1 and K02). Media were replaced once with drugs during culture. Data are represented as dots of three biological independent experiments. FIG. 12E-12F, Cellular growth in response to PD0325901 at the indicated doses for 3 days in SK-MEL-30 (FIG. 12E) or SK-MEL-173 (FIG. 12F) control cells (siCtrl) and PDPK1-knockdown cells (siPDPK1s). Data are represented as dots of at least three biological independent experiments.
To test whether the synergistic effects of GSK2334470 was PDPK1-dependent, the present study generated PDPK1 knockout clones using high gene-editing efficiency clones of WM1361A and WM1366 cells. Depletion of PDPK1 by two different sgRNAs in both cell lines (FIGS. 3A-3B) attenuated cellular proliferation (FIGS. 3C-3D). […]

[3] = tested on: SK-MEL-30 and SK-MEL-173 PDPK1-knockdown cells; assay: Cellular growth of siRNA PDPK1-knockdown cells in response to MEKi; type: cell-based, human; settings: SK-MEL-30 and SK-MEL-173, 3 days, siPDPK1 vs siCtrl
Method: as §1, with “Data are represented as dots of three biological independent experiments.” left out, “Cellular growth in response to trametinib at the indicated doses for 3 days in SK-MEL-30 (FIG. 3H) or SK-MEL-173 (FIG. 3J) control cells (siCtrl) and PDPK1-knockdown cells (siPDPK1s). Data are represented as dots of at least three biological independent experiments.” left out
FIG. 12A-12B: Cell growth of WM1361A (FIG. 12A) or WM1366 (FIG. 12B) parental clone (Cas9) and PDPK1-depleted clones (KO1 and K02) treated with vehicle (DMSO) or PD0325901 (PD) was monitored by IncuCyte every 2 hours. […] Data are represented as the mean±SEM of three biological independent experiment. p values were calculated with an unpaired two-tailed t test. n.s., not significant. […]

[4] = tested on: Nras Q61K mouse melanoma isografts of 1014 cells; assay: 1014 allograft model in immunocompetent B6 mice; type: in vivo; settings: trametinib chow and/or GSK2334470 injection three times per week
[5] = tested on: 1014 tumors; assay: Flow cytometry of tumor-infiltrating immune cells from 1014 tumors; type: in vivo, mouse; settings: day 7 post treatment, over the control group

Structure (SMILES) | cell proliferation, MEKi combined with PDPK1i (GSK2334470) [1] | decrease of the half-maximum inhibitory concentration by PDPK1 depletion [2] | cell proliferation, MEKi combined with PDPK1 depletion [2] | half-maximum inhibitory concentration upon PDPK1 knockdown [3] | tumor growth [4] | frequency of CD8+ T cells within the CD45+ cell compartment [5]
O=C(NOC[C@H](O)CO)c1ccc(F)c(F)c1Nc1ccc(I)cc1F [PD0325901, (R)—N-(2,3-dihydroxypropoxy)-3,4-difluoro-2-((2-fluoro-4-iodophenyl)amino)benzamide] | profoundly inhibited | approximately 4 fold | effectively inhibited | decreased | – | –
CC(=O)Nc1cccc(-n2c(=O)n(C3CC3)c(=O)c3c(Nc4ccc(I)cc4F)n(C)c(=O)c(C)c32)c1 [trametinib, N-(3-(3-cyclopropyl-5-((2-fluoro-4-iodophenyl)amino)-6,8-dimethyl-2,4,7-trioxo-3,4,6,7-tetrahydropyrido[4,3-d]pyrimidin-1(2H)-yl)phenyl)acetamide] | profoundly inhibited | approximately 4 fold | effectively inhibited | decreased | modest delay of tumor growth | intermediate effect

From patent US20240382484A1, “COMPOSITION FOR TREATING, PREVENTING, OR AMELIORATING MELANOMA AND METHOD THEREOF” (Thomas Jefferson University, priority 2021, published 2024)
